Results reported in patent publication US5597823A, “Tricyclic substituted hexahydrobenz [e]isoindole alpha-1 adrenergic antagonists” (priority 1995, dated 1997).
Counter-ions that a name gives are not always drawn.

What was measured:
Type in all cases: cell-based
[1] = biological target: T1, α-1B adrenoceptor (rat spleen) (Rattus norvegicus, UniProt P15823); assay: Functional antagonism: phenylephrine (PE)-induced contraction of rat spleen; conditions: for Kb / pA2 Rat Spleen [α-1B]: vs phenylephrine, Schild plot; for Kb: read-out: pA2 Rat Spleen [α-1B] (converted)
T1 construct: PE-induced contraction of rat spleen; from tissue; host or cells: rat spleen
T1 sequence (P15823 1-515): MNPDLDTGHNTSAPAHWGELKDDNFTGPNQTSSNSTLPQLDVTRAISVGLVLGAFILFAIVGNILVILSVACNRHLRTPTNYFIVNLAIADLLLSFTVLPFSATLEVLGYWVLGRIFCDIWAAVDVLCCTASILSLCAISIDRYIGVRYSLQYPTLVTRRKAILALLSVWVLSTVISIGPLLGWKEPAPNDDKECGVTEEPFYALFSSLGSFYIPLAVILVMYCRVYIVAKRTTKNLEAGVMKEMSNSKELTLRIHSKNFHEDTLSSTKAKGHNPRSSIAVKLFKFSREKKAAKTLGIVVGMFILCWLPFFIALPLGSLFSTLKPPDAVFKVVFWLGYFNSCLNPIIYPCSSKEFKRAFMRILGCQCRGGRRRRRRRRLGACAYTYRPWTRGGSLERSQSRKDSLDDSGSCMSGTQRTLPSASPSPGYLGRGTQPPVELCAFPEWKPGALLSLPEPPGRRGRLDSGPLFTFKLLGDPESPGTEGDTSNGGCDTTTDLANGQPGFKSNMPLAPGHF
Description: (§1) Functional assays indicative of pharmacologically defined α-1 adrenoceptors were used to further characterize compounds. Inhibition of phenylephrine (PE)-induced contraction of canine prostate smooth muscle can be correlated with α-1A adrenoceptor activation. […] For each of these models, agonist dose response curves were repeated against increasing concentrations of test agent to derive a Schild plot [log ([…]) against log (molarity of test agent)] to determine the pA2.

[2] = biological target: T2, α-1A adrenoceptor (dog prostate) (Canis lupus, UniProt A0A8I3NK63); assay: Functional antagonism: phenylephrine (PE)-induced contraction of canine prostate strips; conditions: Table 2a; vs phenylephrine; Schild plot
T2 sequence (A0A8I3NK63 1-466): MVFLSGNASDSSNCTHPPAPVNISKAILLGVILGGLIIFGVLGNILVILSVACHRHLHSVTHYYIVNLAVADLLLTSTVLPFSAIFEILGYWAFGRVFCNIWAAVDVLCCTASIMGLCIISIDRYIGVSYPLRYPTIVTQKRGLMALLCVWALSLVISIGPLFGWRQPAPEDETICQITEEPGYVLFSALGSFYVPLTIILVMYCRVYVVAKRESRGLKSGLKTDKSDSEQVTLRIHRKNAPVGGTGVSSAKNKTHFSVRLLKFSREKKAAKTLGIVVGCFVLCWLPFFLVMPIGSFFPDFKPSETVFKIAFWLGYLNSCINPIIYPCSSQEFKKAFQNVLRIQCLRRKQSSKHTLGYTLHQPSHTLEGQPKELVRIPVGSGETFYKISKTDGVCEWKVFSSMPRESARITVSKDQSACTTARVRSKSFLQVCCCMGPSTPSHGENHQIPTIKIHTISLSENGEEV
Summary of the method: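 Canine prostate smooth-muscle strips in vitro, contracted by phenylephrine. Agonist dose–response curves repeated at rising test-agent concentrations; pA2 derived by Schild plot […].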

[3] = biological target: T3, α-1A adrenoceptor (rat vas deferens) (Rattus norvegicus, UniProt P43140); assay: Functional antagonism: phenylephrine (PE)-induced contraction of rat vas deferens; conditions: vs phenylephrine, Schild plot; for Kb: read-out: pA2 Rat Vas Deferens [α-1A] (converted)
T3 construct: PE-induced contraction of rat vas deferens; from tissue; host or cells: rat vas deferens
T3 sequence (P43140 1-466): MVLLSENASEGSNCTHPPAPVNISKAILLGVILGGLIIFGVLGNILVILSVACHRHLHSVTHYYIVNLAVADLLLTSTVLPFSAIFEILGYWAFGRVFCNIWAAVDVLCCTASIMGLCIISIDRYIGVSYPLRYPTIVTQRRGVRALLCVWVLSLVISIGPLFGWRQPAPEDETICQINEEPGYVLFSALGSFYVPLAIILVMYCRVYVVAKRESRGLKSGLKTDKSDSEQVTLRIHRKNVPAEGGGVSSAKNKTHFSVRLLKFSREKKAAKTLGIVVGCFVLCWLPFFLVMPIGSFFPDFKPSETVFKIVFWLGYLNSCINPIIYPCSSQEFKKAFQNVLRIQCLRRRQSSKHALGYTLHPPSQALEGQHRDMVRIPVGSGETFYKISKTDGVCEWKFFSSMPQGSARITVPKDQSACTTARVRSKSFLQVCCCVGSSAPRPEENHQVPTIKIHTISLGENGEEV
Description: as §1

Row | SMILES | Kb [1] | pA2 Dog Prostate [α-1A] [2] | Kb [3] | pA2 Rat Spleen [α-1B] [1] | pA2 Rat Vas Deferens [α-1A] [3] | more potent effect on spleen smooth muscle ([1]; PE-induced contraction, pA2 models compared)
1 | COc1cccc2c1CC[C@H]1CN(CCn3c(=O)[nH]c4c(sc5cnccc54)c3=O)C[C@@H]21 [Example 36, dihydrochloride] | 7.94 nM | 9.71 | 2.51 nM |  |  | 
2 | COc1cccc2c1CC[C@H]1CN(CCn3c(=O)[nH]c4c(sc5ccccc54)c3=O)C[C@@H]21 (relative stereo) [Example 1, hydrochloride] | 21.4 nM | 8.74 | 4.27 nM |  |  | 
3 | COc1cccc2c1[C@@H]1CN(CCn3c(=O)[nH]c4c(sc5ccccc54)c3=O)C[C@@H]1CC2 [Example 16, hydrochloride] | 56.2 nM | 8.54 | 10.5 nM |  |  | 
4 | COc1cccc2c1CC[C@H]1CN(CCn3c(=O)[nH]c4c(oc5nccnc54)c3=O)C[C@@H]21 [Example 87, hydrochloride] | 87.1 nM | 8.67 | 18.2 nM |  |  | 
5 | COc1cccc2c1CC[C@H]1CN(CCn3c(=O)[nH]c4c(sc5nccnc54)c3=O)C[C@@H]21 [Example 39] |  | 9.16 |  | 7.76 | 8.33 | 
6 | COc1cccc2c1CC[C@@H]1CN(CCn3c(=O)[nH]c4c(sc5ncccc54)c3=O)C[C@H]21 [Example 75, hydrochloride] | 79.4 nM | 8.04 | 5.89 nM |  |  | 
7 | COc1cccc2c1CC[C@H]1CN(CCn3c(=O)[nH]c4c(sc5ncccc54)c3=O)C[C@@H]21 [Example 31, 3,2-((3aR,9bR)-cis-6-Methoxy-2,3,3a,4,5,9b-hexahydro-[1H]-benz[e]isoindol-1-yl))ethyl]-pyrido[3',2':4,5]thieno[3,2-d]pyrimidine-2,4(1H,3H)-dione hydrochloride] | 17.4 nM | 8.78 | 2.24 nM |  |  | 
8 | COc1cccc2c1CC[C@H]1CN(CCn3c(=O)[nH]c4c(sc5ccc(O)nc54)c3=O)C[C@@H]21 [Example 107, dihydrochloride] | 37.2 nM | 9.22 | 20 nM |  |  | 
9 | COc1cccc2c1CC[C@H]1CN(CCn3c(=O)[nH]c4c(sc5ccc(Cl)nc54)c3=O)C[C@@H]21 [Example 62, dihydrochloride] | 21.9 nM | 9.24 | 0.724 nM |  |  | 
10 | COc1cccc2c1CC[C@H]1CN(CCn3c(=O)[nH]c4c(ccc5ccccc54)c3=O)C[C@@H]21 (relative stereo) [Example 25, hydrochloride] | 174 nM | 8.27 | 2.19 nM |  |  | 
11 | COc1cccc2c1CC[C@H]1CN(CCn3c(=O)c4sc5nccnc5c4n(C(C)C)c3=O)C[C@@H]21 [Example 90, hydrochloride] | 26.9 nM | 9.05 | 1.45 nM |  |  | 
12 | COc1cccc2c1CC[C@@H]1CN(CCn3c(=O)[nH]c4c([nH]c5ccccc54)c3=O)C[C@@H]21 (relative stereo) [Example 17, 3-[2-(trans-6-Methoxy-2,3,3a,4,5,9b-hexahydro-[[1H]-benz[e]isoindol-1-yl)ethyl]-1H-pyrimido[5,4-b]indole-2,4(3H,5H)-dione hydrochloride] | 63.1 nM | 8.29 | 10.7 nM |  |  | 
13 | COc1cccc2c1CC[C@H]1CN(CCn3c(=O)[nH]c4c(sc5ccc(C(=O)N6CCOCC6)cc54)c3=O)C[C@@H]21 [Example 58, hydrochloride] | 36.3 nM | 9.09 | 4.37 nM |  |  | 
14 | COc1cccc2c1CC[C@@H]1CN(CCn3c(=O)[nH]c4c(sc5ccccc54)c3=O)C[C@@H]21 (relative stereo) [Example 10, 3-[2-(trans-6-Methoxy-2,3,3a,4,5,9b-hexahydro-[[1H]-benz[e]isoindol-1-yl)ethyl]-[1]benzothieno[3,2-d]pyrimidine-2,4(1H,3H)-dione hydrochloride] | 30.2 nM | 8.37 | 3.09 nM |  |  | 
15 | COc1cccc2c1CC[C@H]1CN(CCn3c(=O)[nH]c4c(sc5nc(Cl)cnc54)c3=O)C[C@@H]21 [Example 88, 3-[2-(cis-(3aR,9bR)-6-Methoxy-2,3,3a,4,5,9b-hexahydro-[1H]-benz[e]isoindol-1-yl)ethyl]-7-chloro-pyrazino[2',3':4,5]thieno[3,2-d]pyrimidine-2,4(1H,3H)-dione hydrochloride] | 44.7 nM | 9.35 | 1.1 nM |  |  | 
16 | O=c1[nH]c2c(sc3cccnc32)c(=O)n1CCN1C[C@@H]2CCc3c(ccc4c3OCO4)[C@@H]2C1 (relative stereo) [Example 112, dihydrochloride] |  | 8.18 |  | 7.2 | 7.92 | 
17 | COc1cccc2c1CC[C@@H]1CN(CCn3c(=O)[nH]c4c(oc5ccccc54)c3=O)C[C@@H]21 (relative stereo) [Example 18, 3-[2-(trans-6-Methoxy-2,3,3a,4,5,9b-hexahydro-[[1H]-benz[e]isoindol-1-yl)ethyl]-benzofuro[3,2-d]pyrimidine-2,4(1H,3H)-dione hydrochloride] | 13.5 nM | 8.37 | 13.8 nM |  |  | 
18 | COc1cccc2c1CC[C@@H]1CN(CCn3c(=O)[nH]c4c(sc5ccccc54)c3=O)C[C@H]21 [Example 8, 3-[2-((3aS,9bS)-cis-6-Methoxy-2,3,3a,4,5,9b-hexahydro-[1H]-benz[e]isoindol-1-yl)ethyl][1]benzothieno[3,2]pyrimidine-2,4(1H,3H)-dione hydrochloride] | 55 nM | 7.63 | 17.4 nM |  |  | 
19 | COc1cnc2c(n1)sc1c(=O)n(CCN3C[C@@H]4CCc5c(OC)cccc5[C@@H]4C3)c(=O)[nH]c12 [Example 89, hydrochloride] | 7.76 nM | 9.03 | 1.17 nM |  |  | 
20 | COc1cccc2c1CC[C@H]1CN(CCn3c(=O)c4sc5ccccc5c4n(C)c3=O)C[C@@H]21 (relative stereo) [Example 11, hydrochloride] | 51.3 nM | 8.57 | 2.82 nM |  |  | 
21 | COc1cccc2c1CC[C@H]1CN(CCn3c(=O)[nH]c4c(sc5cccc(C)c54)c3=O)C[C@@H]21 [Example 69, 3-[2-((3aR,9bR)-cis-6-Methoxy-2,3,3a,4,5,9b-hexahydro-[1H]-benz[e]isoindol-1-yl)ethyl]-[1]-9-methyl-benzothieno[3,2-d]pyrimidine-2,4(1H,3H)-dione hydrochloride] | 69.2 nM | 8.25 | 2.51 nM |  |  | 
22 | COCCOCCn1c(=O)n(CCN2C[C@@H]3CCc4c(OC)cccc4[C@@H]3C2)c(=O)c2sc3nccnc3c21 [Example 102, hydrochloride] | 17.4 nM | 8.96 | 3.63 nM |  |  | 
23 | COc1cccc2c1CC[C@H]1CN(CCn3c(=O)[nH]c4c(sc5ccccc54)c3=O)C[C@@H]21 [Example 9, hydrochloride] | 25.7 nM | 8.63 | 1.95 nM |  |  | 
24 | COc1cc2nc(N3CCN(C(=O)C4COc5ccccc5O4)CC3)nc(N)c2cc1OC (stereo not shown) [doxazosin, reference compound] |  |  |  |  |  | more potent effect on spleen smooth muscle by approximately an order of magnitude
